How the values were obtained:
[1] = pH-dependent stability (MSMS analysis of pigment hydrolysis); assay type: physicochemical; conditions: pH values approached and exceeded 10.00, mass addition of water
[2] = UV absorbance in vitro, SPF calculated using the Mansur equation, comparison to known UV-filters; assay type: physicochemical
Description: FIG. 12 provides absorbance curves (see top graph) and corresponding comparator values (see table) of Xa to known UV-filters, avo- and oxy-benzone. […] X−1 represents synthetic Xa; X−2 represents Xa extracted from squid at 0.10 mM. SPF was calculated using the Mansur equation and critical wavelength was determined as the wavelength at which 90% of the absorbance curve resides.
Xa is the simplest and most common ommochrome and is formed (along with the reduced dihydro-xanthommatin and ommatin subclasses) via the condensation of two hydroxykynurenine residues in the kynurenine pathway of tryptophan metabolism. Once synthesized, Xa is stabilized within granules (diameter 530 nm) that are resistant to photodegradation. An added predicted functionality, although largely unexplored in vitro and in vivo, is that Xa behaves as a free-radical scavenger. Together, with the data presented in FIG. 12 showing that Xa absorbs UV radiation ˜2× higher than current chemical filters at the same concentrations, it is expected that Xa and Xa-based materials can function as UV-filters that can not only protect against solar irradiation but can also be used in preventative skin care as free-radical scavengers (while maintaining biocompatibility).
(§1) Given its propensity to form granules in natural systems (FIG. 3, left) and its impressive UV-absorptive properties in vitro (FIG. 12, see Table 2 below), Xa was encapsulated within biodegradable particles designed to improve its durability and use as a topical UV-filter. The complex refractive index (RI) of Xa was experimentally determined as 1.92+0.014i. This uniquely high RI is important, especially when considering the design criteria of the particle based UV-filters. For instance, when assembled into nano- and micro-particles, Xa will scatter more light than it absorbs at diameters >200 nm, and this difference is maximized at sizes >[…] (FIG. 13). Because light scattering is an important feature for heat dissipation and reflection for coatings, it can be preferable to design particles with diameters ranging from 1-10 μm.

[3] = Spectrophotometric pH titration, experimental determination of pKa; assay type: physicochemical; conditions: water titrated with 0.05 M NaOH, extrapolated from absorbance intensity at 430 and 360 nm as a function of pH
Description: The two observed pKas are indicated by the dashed lines at 5.50 and 8.40.
The purified xanthommatin (˜5 mg) was suspended in water (5.00 mL) and titrated to a starting pH of 2.08. The solution was then titrated with 0.05 M NaOH until the pH reached 10.37. During each point in the titration, the solution pH and absorbance was determined. pH levels were measured using a Fisher Scientific Accumet AP 110 pH meter (Fisher Scientific, Waltham, MA).
The pH-dependent color change of a […] solution of xanthommatin was monitored over a pH range of 1.90-10.30 using spectrophotometry. Three distinct patterns were associated with the increasing pH (see FIG. 8). At pH<3.00, the pigment was pale-yellow with a λmax˜430 nm. […] To determine whether the observed intensity in color was reversible at the lower pH values, the pH of xanthommatin was next cycled between acidic (2.00-3.00) and neutral (pH 6.00-8.00) conditions six times, and the absorbance intensity at 430 nm was followed. […]
If the presence or absence of protons were indeed influencing the resultant visible color, then individual acid dissociation constants (Ka) could be experimentally extrapolated and used to follow compositional changes in the biochrome as a function of pH. To test this, it was determined how absorbance intensities varied as a function of pH at both 430 and 360 nm (see FIG. 9). […]

[4] = Complex refractive index determination; assay type: physicochemical
Source text: as §1

[5] = Electrochromic device (Xa in PEDOT:PSS) redox-dependent color switch, CIE 1931 chromaticity and transmittance; assay type: physicochemical; conditions: darkest yellow (O3) to red (R3) films, 555 nm
Source text: Even though its exact mechanism for electron transfer remains unknown, phenoxazone-based materials are believed to undergo a reversible reduction to dihydroxanthommatin, gaining two electrons and two protons during its redox-dependent color change. These principles are used to show how the pigment stabilized in a polymer (PEDOT-PSS) matrix is capable of switching color in response to different applied voltages. When a double potential step from +1.5 V to −1.5 V vs ground was applied to the device, a redox-dependent color switch was observed (FIG. 11). The current required to switch from one colored state to another was plotted as a function of time upon application of a square-wave potential (FIG. 10). […] In each case, the switching time for each step was calculated as the time required to reach 95% of the maximum current.
The spectral tunability of these materials was also investigated by varying the ratio between PEDOT:PSS and pigment (FIG. 11). Different concentrations of xanthommatin (from 0.04 mg/ml to 0.16 mg/ml) were used while the amount of PEDOT:PSS remained constant. The color of each film activated at the different redox states was measured using the International Commission of Illumination (CIE) 1931 xy-chromaticity diagram. […]
Because the human eye is most sensitive at 555 nm, all transmittance values were calculated at this wavelength without any background correction.

[6] = Hydroxyl radical antioxidant capacity (HORAC) activity assay; assay type: biochemical; conditions: compared to commercially available antioxidant standard gallic acid
Source text: FIG. 14 illustrates the hydroxyl radical antioxidant capacity (HORAC) activity assay activity of Xa. The HORAC assay was used to evaluate the application of Xa as a natural antioxidant. Xa consumes hydroxyl radicals produced by the activation of the fenton reagent preventing the degradation of the fluorescein probe.
Oxygen derived species such as superoxide radical, hydrogen peroxide, singlet oxygen and hydroxyl radical are well known to be cytotoxic and have been implicated in the onset of a wide array of human diseases. These “compounds” are often referred to as reactive oxygen species (ROS). ROS normally exist in all aerobic cells in balance with biochemical antioxidants; however, this critical equilibrium can be disrupted due to excess ROS or antioxidant depletion and can result in oxidative stress. Antioxidants are used in cosmetics, pharmaceuticals, food and on the skin directly minimize the undesirable reactions resulting from oxidation caused by ROS. Commonly used antioxidants typically contain a combination of phenol, benzene and alkene functional groups. These key features work to inhibit the propagation of ROS through resonance stabilization of free radicals. […] The ability of particles and pigments (free and encapsulated) to […] ROS are measured using the colorimetric hydroxyl radical antioxidant capacity (HORAC) assay (FIG. 14). […]

pigment hydrolysis [1]: pigment hydrolysis occurred
pKa [3]: 5.5
complex refractive index (RI) [4]: 1.92+0.014i
optical contrast (ΔT %) [5]: 25.4%
Structure (SMILES): NC(CC(=O)c1cccc2oc3cc(=O)c4[nH]c(C(=O)O)cc(=O)c4c-3nc12)C(=O)O (stereo not shown) [Xa, xanthommatin]
SPF in vitro ([2]; 0.062 mM): 3
SPF in vitro ([2]; 0.125 mM): 14
SPF in vitro ([2]; 0.250 mM): 38
UV radiation absorption relative to current chemical filters ([2]; same concentrations, FIG. 12 comparators avo- and oxy-benzone): ~2 ×
HORAC activity [6]: enhanced activity in comparison to commercially available standard gallic acid
HORAC activity ([6]; listed as Xanthommatin): enhanced activity when compared to commercially available antioxidant gallic acid

— US12514797B2, “Cosmetic and dermatological compositions” (Northeastern University, priority 2017, dated 2026)
